Experimental findings from patent publication US20240300942A1, “SMALL MOLECULES FOR TREATEMENT OF CANCER” (VRise Therapeutics Inc., priority 2021, published 2024) are described below.

The structures appear in SMILES notation. Where only a bound is given, the exact number is not on record here.

The inhibition is the relative decrease from the control value, in per cent. The low end stands for a weak effect, the high end for a strong effect.

The test deals with NCI-H358 cell line. Nature of the test: In vitro cell proliferation assay (CCK-8) in NCI-H358 cell line. The test is classed as cell-based. The settings on record: Homo sapiens, TC2: Test Concentration of 10 uM, 72 hours. How it is done: Growth inhibition assays is to be carried out using 10% FBS supplemented media. Cells are to be seeded at a desired concentration of 1,500-6,000 cells/well in a 96-well plate. Test compounds at a concentration range from 1 to 30 uM will be added after 24 hours. Growth will be assessed using the CCK-8 kit for measuring reduction at 0 h (prior to the addition of the test compound) and 72 hours after the addition of test compound. Absorbance read on a BIO-RAD iMark Microplate or any equivalent microplate reader at a wavelength of 450 nm. Data was analysed and percent inhibition due to the test compound compared to the control is calculated accordingly.
Compound `C=CC(=O)N1CCN(c2nc(N3CCOCC3)c(C#N)c3c2CCN(Cc2ccccc2)C3)CC1` [Ex 34, 1-(4-acryloylpiperazin-1-yl)-6-benzyl-3-morpholino-5,6,7,8-tetrahydro-2,6-naphthyridine-4-carbonitrile] had an inhibition at 10 µM of 25 to 50%.

`C=CC(=O)N1CCN(c2nc(N3CCN(C)CC3)c(C#N)c3c2CCN(Cc2ccccc2)C3)CC1` [Ex 35, 1-(4-acryloylpiperazin-1-yl)-6-benzyl-3-(4-methylpiperazin-1-yl)-5,6,7,8-tetrahydro-2,6-naphthyridine-4-carbonitrile]: the inhibition at 10 µM is 25 to 50%.

The compound `C=CC(=O)N1CCN(c2nc(N3CCN(C)CC3)c(C#N)c3c2CCN(Cc2ccccc2)C3)CC1CC#N` (centres unmarked) [Ex 36, 1-(4-acryloyl-3-(cyanomethyl)piperazin-1-yl)-6-benzyl-3-(4-methylpiperazin-1-yl)-5,6,7,8-tetrahydro-2,6-naphthyridine-4-carbonitrile] returned an inhibition at 10 µM of 25 to 50%.

With `C=CC(=O)N1CCN(c2nc(N3CCN(C)CC3)c(C#N)c3c2CCN(C(=O)c2cccc4ccccc24)C3)CC1CC#N` (centres unmarked) [Ex 37, 6-(1-naphthoyl)-1-(4-acryloyl-3-(cyanomethyl)piperazin-1-yl)-3-(4-methylpiperazin-1-yl)-5,6,7,8-tetrahydro-2,6-naphthyridine-4-carbonitrile], the inhibition at 10 µM lay within 75 to 100%.

Compound `C=CC(=O)N1CCN(c2nc(N3CCN(C)CC3)c(C#N)c3c2CCN(Cc2ccccc2)C3)[C@@H](C)C1` [Ex 38, (S)-1-(4-acryloyl-2-methylpiperazin-1-yl)-6-benzyl-3-(4-methylpiperazin-1-yl)-5,6,7,8-tetrahydro-2,6-naphthyridine-4-carbonitrile] yielded an inhibition at 10 µM not above 25%.

In turn, `C=CC(=O)N1CCN(c2nc(N3CCN(C)CC3)c(C#N)c3c2CCN(Cc2ccccc2)C3)[C@H](C)C1` [Ex 39, (R)-1-(4-acryloyl-2-methylpiperazin-1-yl)-6-benzyl-3-(4-methylpiperazin-1-yl)-5,6,7,8-tetrahydro-2,6-naphthyridine-4-carbonitrile] registered an inhibition at 10 µM of 25 to 50%.

As for `C=CC(=O)N1CCN(c2nc(O)c(C#N)c3c2CCN(Cc2ccccc2)C3)CC1` [Ex 40, 1-(4-acryloylpiperazin-1-yl)-6-benzyl-3-hydroxy-5,6,7,8-tetrahydro-2,6-naphthyridine-4-carbonitrile], the inhibition at 10 µM was not above 25%.

The compound `C=CC(=O)N1CCN(c2nc(N3CCN(C)CC3)c(C#N)c3c2CCN(c2cccc4ccccc24)C3)CC1` [Ex 41, 1-(4-acryloylpiperazin-1-yl)-3-(4-methylpiperazin-1-yl)-6-(naphthalen-1-yl)-5,6,7,8-tetrahydro-2,6-naphthyridine-4-carbonitrile] came in with an inhibition at 10 µM of 25 to 50%.

Turning to `C=CC(=O)N1CCN(c2nc(N3CCCCC3)c(C#N)c3c2CCN(Cc2ccccc2)C3)CC1` [Ex 42, 1-(4-acryloylpiperazin-1-yl)-6-benzyl-3-(piperidin-1-yl)-5,6,7,8-tetrahydro-2,6-naphthyridine-4-carbonitrile], the inhibition at 10 µM lay in the range of 25 to 50%.

`C=CC(=O)N1CCN(c2nc(-c3ccnc(F)c3)c(C#N)c3c2CCN(Cc2ccccc2)C3)CC1` [Ex 43, 1-(4-acryloylpiperazin-1-yl)-6-benzyl-3-(2-fluoropyridin-4-yl)-5,6,7,8-tetrahydro-2,6-naphthyridine-4-carbonitrile] displayed an inhibition at 10 µM of 25 to 50%.

Compound `C=CC(=O)N1CCN(c2nc(N3CCCCC3)c(C#N)c3c2CCN(c2cccc4ccccc24)C3)CC1` [Ex 44, 1-(4-acryloylpiperazin-1-yl)-6-(naphthalen-1-yl)-3-(piperidin-1-yl)-5,6,7,8-tetrahydro-2,6-naphthyridine-4-carbonitrile] had an inhibition at 10 µM not above 25%.

For `C=CC(=O)N1CCN(c2nc(OCC3CCCN3C)c(C#N)c3c2CCN(Cc2ccccc2)C3)CC1` (centres unmarked) [Ex 45, 1-(4-acryloylpiperazin-1-yl)-6-benzyl-3-((1-methylpyrrolidin-2-yl)methoxy)-5,6,7,8-tetrahydro-2,6-naphthyridine-4-carbonitrile], the inhibition at 10 µM is not above 25%.

`C=CC(=O)N1CCN(c2nc(N3CCN(C(=O)C=C)CC3)c3c(c2C#N)CN(c2cccc4ccccc24)CC3)CC1` [Ex 46, 1,3-bis(4-acryloylpiperazin-1-yl)-6-(naphthalen-1-yl)-5,6,7,8-tetrahydro-2,6-naphthyridine-4-carbonitrile] registered an inhibition at 10 µM of 75 to 100%.

With `C=CC(=O)N1CCN(c2nc(N3CCN(C(=O)C=C)CC3)c3c(c2C#N)CN(c2cccc4sccc24)CC3)CC1` [Ex 47, 1,3-bis(4-acryloylpiperazin-1-yl)-6-(benzo[b]thiophen-4-yl)-5,6,7,8-tetrahydro-2,6-naphthyridine-4-carbonitrile], the inhibition at 10 µM lay within 75 to 100%.

Take `C=CC(=O)N1CCN(c2nc(N3CCN(C(=O)CC)CC3)c(C#N)c3c2CCN(c2cccc4ccccc24)C3)CC1` [Ex 48, 1-(4-acryloylpiperazin-1-yl)-6-(naphthalen-1-yl)-3-(4-propionylpiperazin-1-yl)-5,6,7,8-tetrahydro-2,6-naphthyridine-4-carbonitrile]: the inhibition at 10 µM was 75 to 100%.

On to `C=CC(=O)N1CCN(c2nc(N3CCN(C(=O)CC)CC3)c3c(c2C#N)CN(c2cccc4ccccc24)CC3)CC1` [Ex 49, 3-(4-acryloylpiperazin-1-yl)-6-(naphthalen-1-yl)-1-(4-propionylpiperazin-1-yl)-5,6,7,8-tetrahydro-2,6-naphthyridine-4-carbonitrile], for which the inhibition at 10 µM was in the range of 75 to 100%.

Compound `C=CC(=O)N1CCN(c2nc(N3CCOCC3)c(C#N)c3c2CCN(c2cccc4ccccc24)C3)CC1` [Ex 50, 1-(4-acryloylpiperazin-1-yl)-3-morpholino-6-(naphthalen-1-yl)-5,6,7,8-tetrahydro-2,6-naphthyridine-4-carbonitrile] came in with an inhibition at 10 µM of 75 to 100%.

`C=CC(=O)N1CCN(c2nc(N3CCN(C(C)=O)CC3)c(C#N)c3c2CCN(c2cccc4ccccc24)C3)CC1` [Ex 51, 3-(4-acetylpiperazin-1-yl)-1-(4-acryloylpiperazin-1-yl)-6-(naphthalen-1-yl)-5,6,7,8-tetrahydro-2,6-naphthyridine-4-carbonitrile]: the inhibition at 10 µM lay in the range of 50 to 75%.

With `C=CC(=O)N1CCN(c2ncc(C#N)c3c2CCN(c2cccc4ccccc24)C3)CC1` [Ex 56, 1-(4-acryloylpiperazin-1-yl)-6-(naphthalen-1-yl)-5,6,7,8-tetrahydro-2,6-naphthyridine-4-carbonitrile], the inhibition at 10 µM is not above 25%.

Compound `C=C(F)C(=O)N1CCN(c2nc(N3CCN(C(=O)CC)CC3)c(C#N)c3c2CCN(c2cccc4ccccc24)C3)CC1` [Ex 57, 1-(4-(2-fluoroacryloyl)piperazin-1-yl)-6-(naphthalen-1-yl)-3-(4-propionylpiperazin-1-yl)-5,6,7,8-tetrahydro-2,6-naphthyridine-4-carbonitrile] gave an inhibition at 10 µM of 75 to 100%.
